Test results: patent US6130215A, “Piperazinylalkylthiopyrimidine derivatives, pharmaceutical compositions containing the same and a process for the preparation of the novel compounds” (Egis Gyoyszergyar RT, priority 1995, dated 2000)

Tests used:
[1] = target: T1, 5-HT2C receptor (Sus scrofa, UniProt K7GSR7); experiment: 5-HT2C receptor binding ([3H]mesulergine, pig brain choroid plexus membrane preparation); settings: tritiated mesulergine, 37° C., read-out: Inhibition of receptor binding of the radioactive ligand, 5-HT2C (Ki)
T1 construct: pig brain choroid plexus membrane preparation; from tissue; host or cells: pig brain choroid plexus membrane preparation
T1 sequence (K7GSR7 1-457): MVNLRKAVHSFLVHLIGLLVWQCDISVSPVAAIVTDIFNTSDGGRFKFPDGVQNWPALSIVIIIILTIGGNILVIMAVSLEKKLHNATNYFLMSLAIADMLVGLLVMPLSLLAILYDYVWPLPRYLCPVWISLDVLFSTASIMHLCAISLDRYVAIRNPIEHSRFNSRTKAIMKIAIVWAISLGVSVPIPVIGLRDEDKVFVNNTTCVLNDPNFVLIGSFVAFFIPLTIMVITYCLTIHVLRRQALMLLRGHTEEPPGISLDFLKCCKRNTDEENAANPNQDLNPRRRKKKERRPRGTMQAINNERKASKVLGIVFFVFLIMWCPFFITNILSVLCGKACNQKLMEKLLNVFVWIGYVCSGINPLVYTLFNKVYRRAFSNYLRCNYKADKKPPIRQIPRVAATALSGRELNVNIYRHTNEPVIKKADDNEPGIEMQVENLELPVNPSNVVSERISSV
Method: (§1) 5-HT2A and 5-HT2C receptor binding was measured according to the methods described by Leysen et al. /Mol. Pharmacol., 21, 301 (1981)/ and Pazos et al. /Eur. J. Pharmacol., 106, 539 (1985)/, respectively. 5-HT2A receptor binding was measured in rat brain frontal cortex membrane preparation using tritiated ketanserine /3-/2-(4-fluorobenzoyl)- -1-piperidinyl/ethyl-2,4-(1H,3H)-quinazoline-dione/(60-90 Ci/mmole) as ligand. 5-HT2C receptor binding was measured in pig brain choroid plexus membrane preparation using tritiated mesulergine /N'-/(8)-1,6-dimethyl-ergoline-8-yl/-N,N-dimethylsulfamide (70-85 Ci/mmole) as the ligand. Non-specific binding to 5-HT2A and 5-HT2C receptors were determined in the presence of 10 micro M cyproheptadine/4-(5H-dibenzo/a,d/cycloheptene-5-ylidene)-1-methylpiperidine/ and 1 micro M mianserine/1,2,3,4,10,14b-hexahydro-2-methyldibenzo-/c,f/pyrazino/1,2-a/azepine/, respectively. The final incubation volumes were 250 and 1000 microlitres. Samples were incubated for 15 and 30 minutes at 37° C. Incubation was stopped by adding 9 ml of ice-cold 50 mM tris(hydroxymethyl)-aminomethane hydrochloride (pH=7.7) to the reaction mixture. The samples were rapidly filtered through Whatman GF/B glass fiber filters using reduced pressure. Before use, the filters were soaked in a 0.05% poly-ethyleneimine solution for 2 to 3 hours. Radioactivity of the filters was determined by a scintillation spectrometer.

[2] = target: T2, 5-HT2A receptor (Rattus norvegicus, UniProt P14842); experiment: 5-HT2A receptor binding ([3H]ketanserine, rat brain frontal cortex membrane preparation); settings: tritiated ketanserine, 37° C., read-out: Inhibition of receptor binding of the radioactive ligand, 5-HT2A (Ki)
T2 construct: rat brain frontal cortex membrane preparation; from tissue; host or cells: rat brain frontal cortex membrane preparation
Method: as §1

[3] = test system: rat stomach fundus smooth muscle; experiment: Inhibition of serotonin-induced contractions of isolated rat stomach fundus smooth muscle; type: cell-based, rat (male Wistar); settings: 5-HT 10^-7 M, 37° C., read-out: Inhibition of 5-HT-evoked contractions of isolated rat stomach fundus, IC50
Method: The experiments were performed on male Wistar rats weighing 350 to 400 g. The animals were fasted for 24 hours before the experiments, however, they were allowed to drink tap water ad libitum. The method used was a modified version of Vane et al. /J. Pharmac. Chemother., 12, 344 (1957)/. The rats were killed by decapitation and their stomach was removed, and 3 mm wide and 20 to 30 mm long strips were cut in parallel with the greatest curvature of the stomach. The strips were incubated for 60 minutes in a 6 ml Lucite chamber filled with Tyrode solution (NaCl 136.9 mM, KCl2.7 mM, CaCl2 1.8 mM, MgCl2 1.0 mM, NaHCO3 11.9 mM, glucose 5.6 mM, NaH2 PO4 0.4 mM) warmed to 37° C. and bubbled with a gas consisting of 95% of oxygen and 5% of carbon dioxide. The strips were stretched with 0.5 g during the 60 minutes equilibration time and were washed every 20 minutes. The tension was measured isometrically by a strain gauge (Hugo Sachs) and was recorded on a Graphtech Mark VII 3101 polygraph.
Three control contractions were evoked by 5-HT added to the bath in 10^-7 M concentration (C1, C2, C3).
The effects of the test compounds were determined in 5 increasing concentrations (T2, T3, T4, T5, and T6). After determining the effect of two concentrations of the test compounds, the control 5-HT response was checked after each test measurement.
(§2) IC50 was calculated by nonlinear curve fitting of the inhibitory effect of increasing concentrations of the test compound.

[4] = target: T3, 5-HT2A receptor (Oryctolagus cuniculus, UniProt G1SYA7); experiment: 5-HT2A receptor antagonistic effect: inhibition of 5-HT-evoked contractions on isolated rabbit aortic strips; type: cell-based, rabbit (New-Zealand, male, white); settings: 5-HT 10^-6 M; phenoxybenzamine 10^-8 M; tranylcypramine 10^-7 M; 10 minutes incubation
T3 construct: The thoracic aorta segment after the aortic arch was removed; from tissue; host or cells: rabbit thoracic aorta, helical strips
Method: New-Zealand, male, white rabbits weighing 2.0 to 2.5 kg were killed by a blow on the head. The thoracic aorta segment after the aortic arch was removed and placed into a Krebs' solution (NaCl 118 mM, KCl 4.6 mM, NaHCO3 25 mM, glucose 10.5 mM, […] 1 mM, KH2PO4 1 mM, CaCl2 2.6 mM). The aorta was carefully cleaned from fat and connective tissue, and was cut into 3 mm wide and 30 mm long helical strips. Four strips were obtained from each rabbit. The strips were equilibrated at 37° C. for 60 minutes in an organ chamber filled with Krebs' solution. The strips were also oxygenated by bubbling carbogen gas (5% of carbon dioxide and 95% of oxygen) through the solution. The strips were stretched by 1 g tension.
The contractions were measured by a Hugo Sachs K-30 type strain gauge, and were registered on a Multicorder type polygraph. During the last 40 minutes of the equilibration, the MAO enzym inhibitor tranylcypramine (10^-7 M) /chemical name: (±)-trans-2-phenylcyclopropylamine/ was also added to the bath.
Any alpha-adrenergic effects of the test compounds were eliminated by 10^-8 M of phenoxybenzamine /N-(2-chloroethyl)-N-(1-methyl-2-phenoxyethyl)benzylamine/ /Clancy et al., J. Pharm. Exp. Ther., 233, 761 (1985). Testing of the serotonergic antagonistic effect was started at the 90th minute of incubation. The stability and reproducibility of the contractile response of the aortic strips to serotonin was tested by two consecutive application and wash-out procedures of 10^-6 M concentration of 5-HT, 40 minutes apart. […] 30 minutes after the second testing, a preset concentration of the test compound was added to the bath, and, after a 10 minutes incubation time, the response to 10^-6 M of 5-HT was determined in the presence of the compound to be tested.
Two different concentrations of a given compound were tested on each aortic strip by the above method. Reproducibility of the control 5-HT-evoked response was checked between testing the two concentrations of the compound.
as §2

[5] = test system: human anxiety; settings: cited from earlier work

T3 sequence (G1SYA7 1-469): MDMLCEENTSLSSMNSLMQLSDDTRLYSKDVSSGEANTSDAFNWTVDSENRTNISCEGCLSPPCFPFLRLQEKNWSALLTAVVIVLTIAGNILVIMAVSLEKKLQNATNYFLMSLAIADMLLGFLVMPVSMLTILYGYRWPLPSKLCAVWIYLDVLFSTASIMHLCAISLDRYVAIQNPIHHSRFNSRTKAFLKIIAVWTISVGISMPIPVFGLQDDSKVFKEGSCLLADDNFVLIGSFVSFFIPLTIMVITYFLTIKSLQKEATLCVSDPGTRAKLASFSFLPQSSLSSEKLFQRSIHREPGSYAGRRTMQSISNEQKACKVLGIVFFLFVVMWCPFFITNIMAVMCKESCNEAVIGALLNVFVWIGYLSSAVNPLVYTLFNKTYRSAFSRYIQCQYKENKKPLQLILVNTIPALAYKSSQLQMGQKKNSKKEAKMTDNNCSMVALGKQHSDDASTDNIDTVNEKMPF
T2 sequence (P14842 whole entry): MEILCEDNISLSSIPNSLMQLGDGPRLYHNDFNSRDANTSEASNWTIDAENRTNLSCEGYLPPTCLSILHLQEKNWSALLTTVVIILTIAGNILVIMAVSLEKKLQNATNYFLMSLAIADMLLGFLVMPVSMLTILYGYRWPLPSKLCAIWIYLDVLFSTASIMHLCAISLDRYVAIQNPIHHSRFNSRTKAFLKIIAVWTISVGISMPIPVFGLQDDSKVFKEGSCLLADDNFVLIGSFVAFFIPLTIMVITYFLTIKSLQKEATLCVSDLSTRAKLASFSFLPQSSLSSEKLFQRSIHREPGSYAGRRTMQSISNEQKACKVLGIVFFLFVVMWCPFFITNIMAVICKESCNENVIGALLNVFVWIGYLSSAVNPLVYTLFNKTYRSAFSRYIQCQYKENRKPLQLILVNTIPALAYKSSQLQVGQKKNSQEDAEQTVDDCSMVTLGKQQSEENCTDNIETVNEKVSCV

Compound	Ki [1]	Ki [2]	IC50 [3]	IC50 [4]	effectiveness for the treatment of different forms of human anxiety [5]
Nc1nc(SCCN2CCN(Cc3ccc([N+](=O)[O-])cc3)CC2)nc(N)c1Cc1ccc(F)cc1 [Example 20, 2-[2-/4-(4-Nitrobenzyl)-1-piperazinyl/-ethylthio]-4,6-diamino-5-(4-fluorobenzyl)-pyrimidine]	> 0.1 µM	0.203 µM	0.56 µM	1.5 µM	–
COc1ccc(Cc2c(N)nc(SCCN3CCN(Cc4ccccc4)CC3)nc2N)cc1 [Example 22, 2-/2-(4-Benzyl-1-piperazinyl)ethylthio/-4,6-diamino-5-(4-methoxybenzyl)pyrimidine]	> 0.1 µM	0.056 µM	0.32 µM	0.42 µM	–
COc1cccc(CN2CCN(CCSc3nc(N)c(Cc4ccccc4OC)c(N)n3)CC2)c1 [Example 31, 2-[2-/4-(3-Methoxybenzyl)-1-piperazinyl/-ethylthio]-4,6-diamino-5-(2-methoxybenzyl)-pyrimidine]	0.021 µM	> 0.1 µM	–	0.73 µM	–
COc1cccc(CN2CCN(CCSc3nc(N)c(Cc4ccccc4Cl)c(N)n3)CC2)c1 [Example 44, 2-[2-/4-(3-Methoxybenzyl)-1-piperazinyl/-ethylthio]-4,6-diamino-5-(2-chlorobenzyl)-pyrimidine]	> 0.1 µM	0.093 µM	–	0.65 µM	–
Nc1nc(SCCN2CCN(Cc3ccccc3Cl)CC2)nc(N)c1Cc1ccccc1Cl [Example 45, 2-[2-/4-(2-Chlorobenzyl)-1-piperazinyl/ethylthio]-4,6-diamino-5-(2-chlorobenzyl)-pyrimidine]	0.025 µM	0.027 µM	–	0.43 µM	–
Nc1nc(SCCN2CCN(Cc3ccc([N+](=O)[O-])cc3)CC2)nc(N)c1Cc1ccc(Cl)cc1 [Example 48, 2-[2-/4-(4-Nitrobenzyl)-1-piperazinyl/-ethylthio]-4,6-diamino-5-(4-chlorobenzyl)-pyrimidine]	–	–	0.42 µM	–	–
CN(C)c1ccc(Cc2c(N)nc(SCCN3CCN(Cc4ccccc4F)CC3)nc2N)cc1 [Example 53, 2-[2-/4-(2-Fluorobenzyl)-1-piperazinyl/-ethylthio]-4,6-diamino-5-(4-dimethylamino-benzyl)pyrimidine]	> 0.1 µM	0.015 µM	–	0.47 µM	–
CN(C)c1ccc(Cc2c(N)nc(SCCN3CCN(Cc4cccc(Cl)c4)CC3)nc2N)cc1 [Example 56, 2-[2-/4-(3-Chlorobenzyl)-1-piperazinyl/-ethylthio]-4,6-diamino-5-(4-dimethylamino-benzyl)pyrimidine]	0.057 µM	0.038 µM	–	0.9 µM	–
CN(C)c1ccc(Cc2c(N)nc(SCCN3CCN(Cc4ccc([N+](=O)[O-])cc4)CC3)nc2N)cc1 [Example 57, 2-[2-/4-(4-Nitrobenzyl)-1-piperazinyl/-ethylthio]-4,6-diamiiino-5-(4-dimethylamino-benzyl)pyrimidine]	0.042 µM	> 0.1 µM	0.89 µM	0.89 µM	–
Nc1nc(SCCN2CCN(Cc3ccc([N+](=O)[O-])cc3)CC2)nc(N)c1Cc1ccc(Br)cc1 [Example 64, 2-[2-/4-(4-Nitrobenzyl)-1-piperazinyl/-ethylthio]-4,6-diamino-5-(4-bromo-benzyl)pyrimidine]	–	–	0.68 µM	–	–
COc1cccc(CN2CCN(CCSc3nc(N)c(Cc4cc(OC)c(OC)c(OC)c4)c(N)n3)CC2)c1 [Example 65, 2-[2-/4-(3-Methoxybenzyl)-1-piperazinyl/-ethylthio]-4,6-diamino-5-(3,4,5-trimethoxy-benzyl)pyrimidine]	0.042 µM	0.034 µM	–	0.17 µM	–
COc1cc(Cc2c(N)nc(SCCN3CCN(Cc4ccccc4Cl)CC3)nc2N)cc(OC)c1OC [Example 67, 2-[2-/4-(2-Chlorobenzyl)-1-piperazinyl/-ethylthio]-4,6-diamino-5-(3,4,5-trimethoxy-benzyl)pyrimidine]	0.0086 µM	0.0046 µM	–	0.039 µM	–
COc1cc(Cc2c(N)nc(SCCN3CCN(Cc4ccc([N+](=O)[O-])cc4)CC3)nc2N)cc(OC)c1OC [Example 68, 2-[2-/4-(4-Nitrobenzyl)-1-piperazinyl/-ethylthio]-4,6-diamino-5-(3,4,5-trimethoxy-benzyl)pyrimidine]	> 0.1 µM	0.021 µM	–	0.78 µM	–
COc1cc(Cc2c(N)nc(SCCN3CCN(Cc4cccc(C(F)(F)F)c4)CC3)nc2N)cc(OC)c1OC [Example 69, 2-[2-/4-(3-Trifluoromethylbenzyl)-1-piperazinyl/ethylthio]-4,6-diamino-5-(3,4,5-trimethoxybenzyl)pyrimidine]	0.026 µM	0.038 µM	–	0.096 µM	–
COc1ccc(Cc2c(N)nc(SCCN3CCN(Cc4ccccc4Cl)CC3)nc2N)cc1 [Example 72, 2-[2-/4-(2-Chlorobenzyl)-1-piperazinyl/-ethylthio]-4,6-diamino-5-(4-methoxy-benzyl)pyrimidine]	0.02 µM	0.024 µM	–	0.084 µM	–
Cc1nc2sccn2c(=O)c1CCN1CCC(=C(c2ccc(F)cc2)c2ccc(F)cc2)CC1 [ritanserin, 6-[2-14-bis(4-fluorophenyl)methylene/-1-piperidinyl-ethyl]-7-7-methyl-5H-thiazolo/3,2-a/pirimidine-5-one]	–	–	–	–	effective for the treatment of different forms of human anxiety
